Results: patent EP0390762A1, “New bronchospasmolytic compounds and process for their preparation” (priority 1989, dated 1990)

Columns and labels:
[1] = test system: dyspnotic breathing in histamine; assay: Duration of bronchodilating activity in conscious guinea pigs challenged with aerosolized histamine after tracheal instillation or inhalation; type: in vivo; conditions: for initial potency compared with salmeterol / initial potency compared with terbutaline: conscious guinea pigs, histamine challenge; for delay (in minutes) in the appearance of dyspnotic breathing in histamine 0.5 h after the administration / delay (in minutes) in the appearance of dyspnotic breathing in histamine 6 h after the administration: given intratracheally
Procedure: Concious guinea pigs were used in the study. The compounds according to Examples 1 and 2, salmeterol and terbutaline, were given by inhalation or by tracheal instillation whereafter the animals were challenged in a histamine mist after different time intervals.
The guinea pigs were placed in plastic boxes and the test compounds delivered by continuous flow nebulization during 15 minutes.
The animals were lightly anaesthetized by inhalation of Efrane. The test compounds were instilled by use of a thin cannula to the tracheal bifurcation. Controlled animals were instilled with saline.
After the administrations, according to one of the mentioned routes, the animals were placed in transparent plastic cages and challenged with aerosolized histamine. The mist was generated in a nebulizer from a solution containing 0.5-1.0x10⁻³ mol/l of histamine in 3% glycerol. This concentration produced a defined dyspnotic breathing, appearing in control animals within 2-3 minutes. This phase was usally indicated by observation, sometimes also a "blinded trial" or recorded by use of a strain-gauge belt (see 0.A.T. Olsson in Acta Allergologica 26, 438, 1971). An increasing amount of spasmolytic drug gives then rise to a dose-dependent prolongation of the ability of the animals to resist this histamine spasm. As soon as a dyspnotic breathing was established the guinea pigs were removed from the histamine milieu since the same animals have to be exposed to histamine not only after 30 minutes but also at 3, 6 and 9 hours after drug administration.
In some of the experiments the animals were challenged with methacholine instead of histamine to exclude the eventuality of an antihistaminic effect of the drugs tested.
The amounts instilled produce about equieffective protection (6 to 7 minutes) against a histamine provocation 30 minutes after the administration of the test compound. The degree of protection 6 hours after the instillation of the test compound indicates the duration of the bronchospasmolytic activity.

[2] = inhalation therapy; cited from earlier work
heart-rate = assay: Heart-stimulating effect (heart-rate) in anaesthetized guinea pigs; type: in vivo
Procedure: (§1) Guinea pigs of either sex were used in the study. The anaesthesia was produced by intravenous pentobarbital, The trachea was cannulated and the animals articificially ventilated by a constant volume respiratory. The intratracheal pressure (ITP) was measured by a pressure transducer. An increase in ITP, above the basic pressure level, indicating a respiratory spasm, was elicited by histamine infused in a jugular vein during 20 sec. every 7 minutes and in amounts producing a peak-ITP in the range 4-6 kPa. To trace cardiovascular effects from used drugs the blood pressure was recorded from a carotide artery via a pressure transducer. The pulse wave, indicating the rate, was triggering a tachograph recording the heart frequency.
(§2) The test compounds were injected 3 minutes before a histamine infusion and the decrease in percent of the intratracheal pressure (ITP) was taken as a measure of the bronchospasmolytic activity. The influence on heart-rate was evaluated after cumultative injections; a new injection was given when the preceding one had produced a steady state in the rate.
(§3) The test compounds were nebulized and the mist produced was led to the animal through the respirator and tracheal cannula. Inhalation continued for 15 mintues for each concentration of the test compounds. The bronchodilating effect […] was calculated as percent reduction in ITP. The effect on heart-rate was determined after a cumultative increase in the concentrations of the nebulized solutions. Effect measurements were made at steady state, and three different concentrations were used.

[3] = test system: histamine-elicited bronchospasm; assay: Bronchospasmolytic effect (reduction of intratracheal pressure, ITP) in anaesthetized guinea pigs; type: in vivo; conditions: for dose-related inhibition of the histamine-elicited bronchospasm: after injection as well as after inhalation; for reduction of ITP: 3 minutes before histamine infusion
Procedure: as §1, §2, §3

In the case of `COc1ccc(CNc2cc([C@@H](O)CN[C@@H](C)Cc3ccc4c(c3)OCO4)ccc2O)cc1` [(R,S), 1-(R)-(4-hydroxy-3-(p-methoxybenzylamino)phenyl)-2-[(1(S)-methyl-2-(3,4-methylenedioxyphenyl)ethyl)amino]ethanol], the “initial potency compared with salmeterol” value [1] is reported as “approximately ten times less than for salmeterol”, the “initial potency compared with terbutaline” value [1] is reported as “about the same as for terbutaline” and the “delay (in minutes) in the appearance of dyspnotic breathing in histamine 0.5 h after the administration” value ([1]; 5x10⁻⁹ mol/kg) is reported as 6 min. The “delay (in minutes) in the appearance of dyspnotic breathing in histamine 6 h after the administration” value ([1]; 5x10⁻⁹ mol/kg) was 5 min.
With `COc1ccc(CNc2cc([C@@H](O)CN[C@H](C)Cc3ccc4c(c3)OCO4)ccc2O)cc1` [(R,R)] the “delay (in minutes) in the appearance of dyspnotic breathing in histamine 0.5 h after the administration” value ([1]; 5x10⁻⁸ mol/kg) was 7 min and the “delay (in minutes) in the appearance of dyspnotic breathing in histamine 6 h after the administration” value ([1]; 5x10⁻⁸ mol/kg) was 3 min.
In the case of `Cc1ccc(C(=O)Oc2ccc(C(O)CNC(C)(C)C)cc2OC(=O)c2ccc(C)cc2)cc1` (centres unmarked) [bitolterol], the duration of activity [2] is given as 4 to 6 h.
For `COc1ccc(CNc2cc(C(O)CNC(C)Cc3ccc4c(c3)OCO4)ccc2O)cc1` [(R,S+S,S)], the “delay (in minutes) in the appearance of dyspnotic breathing in histamine 0.5 h after the administration” value ([1]; 1x10⁻⁸ mol/kg) was 6 min and the “delay (in minutes) in the appearance of dyspnotic breathing in histamine 6 h after the administration” value ([1]; 1x10⁻⁸ mol/kg) was 5 min.
In the case of `CC(Cc1ccc(O)cc1)NCC(O)c1cc(O)cc(O)c1` (centres unmarked) [fenoterol], the duration of activity [2] is listed as 4 to 6 h.
For `CC(C)(C)NCC(O)c1ccc(O)c(CO)c1` (centres unmarked) [salbutamol], the duration of activity [2] is given as 4 to 6 h.
In the case of `CC(C)(C)NCC(O)c1cc(O)cc(O)c1` (centres unmarked) [Terbutaline, terbutaline], the “effect on heart-rate relative to salmeterol and the compounds of the invention” value (heart-rate; guinea pig, in vivo) is listed as “lies in between”, the “increase of the heart-rate” value (heart-rate; guinea pig, in vivo, iv) is listed as “about 30 beats/min” and the duration of activity [2] is listed as 4 to 6 h. The “delay (in minutes) in the appearance of dyspnotic breathing in histamine 0.5 h after the administration” value ([1]; 1x10⁻⁷ mol/kg) was 7 min, the “delay (in minutes) in the appearance of dyspnotic breathing in histamine 6 h after the administration” value ([1]; 1x10⁻⁷ mol/kg) was 2 min and the “dose-related inhibition of the histamine-elicited bronchospasm” value (shortened to “dose-related inhibition”) [3] was “inhibition of the histamine-elicited bronchospasm”. For the same compound, the “reduction of ITP” value ([3]; injection of 1x10⁻⁸ mol/kg) was “about 50 per cent”.
For `COc1ccc(CNc2cc([C@@H](O)CN[C@@H](C)Cc3ccc4c(c3)OCO4)ccc2O)cc1` (racemic) [(R,S+S,R)], the “effect on heart rate compared with salmeterol” value (heart-rate; after inhalation) was “more reduced effect on heart rate”, the “relationship between the effect on the respiratory system and heart, compared with salmeterol” value (heart-rate; when the drugs are injected) was “the same” and the “initial potency compared with salmeterol” value [1] was “approximately ten times less than for salmeterol”. For the same compound, the “initial potency compared with terbutaline” value [1] was “about the same as for terbutaline”, the “delay (in minutes) in the appearance of dyspnotic breathing in histamine 0.5 h after the administration” value ([1]; 1x10⁻⁸ mol/kg) was 7 min and the “delay (in minutes) in the appearance of dyspnotic breathing in histamine 6 h after the administration” value ([1]; 1x10⁻⁸ mol/kg) was 6 min. For the same compound, the “dose-related inhibition” value [3] was “inhibition of the histamine-elicited bronchospasm” and the “reduction of ITP” value ([3]; injection of 5x10⁻⁹ mol/kg) was “about 50 per cent”.
For `OCc1cc(C(O)CNCCCCCCOCCCCc2ccccc2)ccc1O` (centres unmarked) [salmeterol], the “increase of the heart-rate” value (heart-rate; guinea pig, in vivo) was 15 beats/min, the “increase of the heart-rate” value (heart-rate; guinea pig, in vivo, iv) was “about 30 beats/min” and the “duration of activity compared with terbutaline” value ([1]; calculated from an equipotent level) was “prolonged”. The “dose-related inhibition” value [3] was “inhibition of the histamine-elicited bronchospasm”, the “reduction of ITP” value ([3]; injection of 5x10⁻¹⁰ mol/kg) was “about 50 per cent” and the “potency compared with the other two drugs (compound of Example 2, terbutaline)” value ([3]; when inhaled) was “about five times”. The “potency compared with the other two drugs (compound of Example 2, terbutaline)” value ([3]; when injected) was “at least ten times higher”.
For `COc1ccc(CNc2cc(C(O)CNC(C)Cc3ccc4c(c3)OCO4)ccc2O)cc1` [(R,R+S,R)], the “delay (in minutes) in the appearance of dyspnotic breathing in histamine 0.5 h after the administration” value ([1]; 1x10⁻⁷ mol/kg) was 7 min and the “delay (in minutes) in the appearance of dyspnotic breathing in histamine 6 h after the administration” value ([1]; 1x10⁻⁷ mol/kg) was 3 min.
